The source of these data is patent publication US11419869B2, “Dosage forms and regimens for amino acid compounds” (Pliant Therapeutics, Inc., priority 2019, dated 2022).

SMILES strings stand for the structures.

The target of this assay is recombinant human integrin αvβ6 (Homo sapiens (Human), UniProt P06756+P18564). Kind of assay: Solid Phase Integrin αvβ6 Binding Assay (Examples B1, B2). To be noted: TGFβ1 LAP ligand, values given in four ranges, read-out: αvβ6 Inhibition IC50 (nM)-range. Put shortly: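 Plates coated with recombinant human αvβ6 (2 μg/mL) compete compound against recombinant TGFβ1 LAP (0.67 μg/mL) in TBS binding buffer with 0.5 mM MnCl2, 2 h at 25 °C. Bound LAP detected with biotin-anti-hLAP and peroxidase-streptavidin; IC50 by four-parameter logistic regression.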
Chain of recombinant human integrin αvβ6 (P06756 31-992): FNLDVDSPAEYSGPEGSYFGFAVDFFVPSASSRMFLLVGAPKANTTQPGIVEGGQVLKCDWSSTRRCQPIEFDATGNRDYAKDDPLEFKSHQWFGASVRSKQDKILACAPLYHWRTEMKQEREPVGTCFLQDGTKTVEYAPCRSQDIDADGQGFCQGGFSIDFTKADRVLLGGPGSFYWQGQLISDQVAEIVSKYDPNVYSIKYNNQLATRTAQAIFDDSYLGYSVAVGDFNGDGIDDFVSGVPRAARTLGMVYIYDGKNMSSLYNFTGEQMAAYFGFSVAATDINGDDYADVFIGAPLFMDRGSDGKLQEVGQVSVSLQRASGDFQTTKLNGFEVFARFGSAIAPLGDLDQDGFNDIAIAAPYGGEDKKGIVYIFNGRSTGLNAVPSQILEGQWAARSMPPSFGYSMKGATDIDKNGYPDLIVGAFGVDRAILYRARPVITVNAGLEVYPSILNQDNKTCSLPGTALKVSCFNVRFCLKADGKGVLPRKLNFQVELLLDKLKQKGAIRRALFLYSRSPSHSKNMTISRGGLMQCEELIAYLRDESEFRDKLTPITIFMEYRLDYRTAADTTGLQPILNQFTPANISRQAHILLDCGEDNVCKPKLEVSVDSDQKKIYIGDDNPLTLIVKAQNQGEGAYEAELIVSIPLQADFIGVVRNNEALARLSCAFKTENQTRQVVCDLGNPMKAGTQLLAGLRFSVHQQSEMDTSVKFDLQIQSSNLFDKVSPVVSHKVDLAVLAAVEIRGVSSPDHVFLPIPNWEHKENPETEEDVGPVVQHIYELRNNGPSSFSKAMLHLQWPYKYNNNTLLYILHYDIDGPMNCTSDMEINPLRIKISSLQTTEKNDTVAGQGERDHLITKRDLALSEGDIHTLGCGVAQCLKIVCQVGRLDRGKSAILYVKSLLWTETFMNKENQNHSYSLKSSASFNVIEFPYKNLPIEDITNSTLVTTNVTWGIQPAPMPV
Chain of recombinant human integrin αvβ6 (P18564 22-707): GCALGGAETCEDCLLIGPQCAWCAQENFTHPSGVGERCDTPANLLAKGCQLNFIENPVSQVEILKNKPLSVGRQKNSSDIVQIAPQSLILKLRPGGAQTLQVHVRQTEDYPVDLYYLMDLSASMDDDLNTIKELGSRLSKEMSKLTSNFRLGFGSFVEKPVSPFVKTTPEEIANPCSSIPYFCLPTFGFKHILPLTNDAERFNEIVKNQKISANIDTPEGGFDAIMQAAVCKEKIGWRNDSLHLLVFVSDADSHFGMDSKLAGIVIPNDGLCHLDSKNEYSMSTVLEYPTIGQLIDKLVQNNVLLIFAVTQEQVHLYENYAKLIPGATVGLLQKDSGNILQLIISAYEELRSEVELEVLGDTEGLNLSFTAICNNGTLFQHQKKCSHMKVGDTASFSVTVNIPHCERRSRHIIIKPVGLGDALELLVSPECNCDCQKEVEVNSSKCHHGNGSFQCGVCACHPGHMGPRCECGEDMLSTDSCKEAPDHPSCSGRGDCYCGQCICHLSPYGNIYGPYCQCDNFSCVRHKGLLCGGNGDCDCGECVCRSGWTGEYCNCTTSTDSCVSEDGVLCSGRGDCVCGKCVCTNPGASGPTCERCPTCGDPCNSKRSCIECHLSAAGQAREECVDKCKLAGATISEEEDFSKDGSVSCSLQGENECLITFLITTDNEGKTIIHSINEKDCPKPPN
Broadly, the IC50 is the concentration at which inhibition is half-maximal. In the case of `O=C(O)[C@H](CCN(CCCCc1ccc2c(n1)NCCC2)CCOCC(F)(F)F)Nc1ncnc2cccnc12` [Compound 51, (S)-2-(pyrido[3,2-d]pyrimidin-4-ylamino)-4-((4-(5,6,7,8-tetrahydro-1,8-naphthyridin-2-yl)butyl) (2-(2,2,2-trifluoroethoxy)ethyl)amino) butanoic acid], the IC50 is below 50 nM.

For the compound `O=C(O)[C@H](CCN(CCCCc1ccc2c(n1)NCCC2)CC(F)F)Nc1ncc(C2CC2)cn1` [Compound 146, (S)-2-((5-cyclopropylpyrimidin-2-yl)amino)-4-((2,2-difluoroethyl) (4-(5,6,7,8-tetrahydro-1,8-naphthyridin-2-yl)butyl)amino) butanoic acid], the IC50 was above 1000 nM.

Consider `CO[C@H](C)CN(CCCCc1ccc2c(n1)NCCC2)CC[C@H](Nc1cc(-n2cccn2)ncn1)C(=O)O` [Compound 77, (S)-2-((6-(1H-pyrazol-1-yl)pyrimidin-4-yl)amino)-4-(((R)-2-methoxypropyl) (4-(5,6,7,8-tetrahydro-1,8-naphthyridin-2-yl)butyl)amino) butanoic acid], for which the IC50 is below 50 nM.

For the compound `COCCN(CCCCc1ccc2c(n1)NCCC2)CC[C@H](Nc1cc(C)nc(C(F)(F)F)n1)C(=O)O` [Compound 26, (S)-4-((2-methoxyethyl) (4-(5,6,7,8-tetrahydro-1,8-naphthyridin-2-yl)butyl)amino)-2-((6-methyl-2-(trifluoromethyl)pyrimidin-4-yl)amino) butanoic acid], the IC50 is below 50 nM.

With `O=C(O)[C@H](CCN(CCCCc1ccc2c(n1)NCCC2)CC(F)F)Nc1ccnc(C(F)(F)F)n1` [Compound 97, (S)-4-((2,2-difluoroethyl) (4-(5,6,7,8-tetrahydro-1,8-naphthyridin-2-yl)butyl)amino)-2-((2-(trifluoromethyl)pyrimidin-4-yl)amino) butanoic acid], the IC50 was above 1000 nM.

With `O=C(O)[C@H](CCN(CCCCc1ccc2c(n1)NCCC2)CCOCC(F)F)Nc1ncnc2ccccc12` [Compound 50, (S)-4-((2-(2,2-difluoroethoxy)ethyl) (4-(5,6,7,8-tetrahydro-1,8-naphthyridin-2-yl)butyl)amino)-2-(quinazolin-4-ylamino) butanoic acid], the IC50 is below 50 nM.

Regarding `O=C(O)[C@H](CCN(CCCCc1ccc2c(n1)NCCC2)CCC(F)F)Nc1ncnc2ccccc12` [Compound 29, (S)-4-((3,3-difluoropropyl) (4-(5,6,7,8-tetrahydro-1,8-naphthyridin-2-yl)butyl)amino)-2-(quinazolin-4-ylamino) butanoic acid], the IC50 was below 50 nM.

For `CCOCCN(CCCCc1ccc2c(n1)NCCC2)CC[C@H](Nc1ncnc2ccccc12)C(=O)O` [Compound 55, (S)-4-((2-ethoxyethyl) (4-(5,6,7,8-tetrahydro-1,8-naphthyridin-2-yl)butyl)amino)-2-(quinazolin-4-ylamino) butanoic acid], the IC50 was below 50 nM.

Turning to `Cn1ncc2c(N[C@@H](CCN(CCCCc3ccc4c(n3)NCCC4)CC(F)F)C(=O)O)ncnc21` [Compound 88, (S)-4-((2,2-difluoroethyl) (4-(5,6,7,8-tetrahydro-1,8-naphthyridin-2-yl)butyl)amino)-2-((1-methyl-1H-pyrazolo[3,4-d]pyrimidin-4-yl)amino) butanoic acid], the IC50 was above 1000 nM.

As to `COCCN(CCCCc1ccc2c(n1)NCCC2)CC[C@H](Nc1ncnc2ncccc12)C(=O)O` [Compound 11, (S)-4-((2-methoxyethyl) (4-(5,6,7,8-tetrahydro-1,8-naphthyridin-2-yl)butyl)amino)-2-(pyrido[2,3-d]pyrimidin-4-ylamino) butanoic acid], the IC50 is below 50 nM.

In the case of `O=C(O)[C@H](CCN(CCCCc1ccc2c(n1)NCCC2)CCOc1cncc(F)c1)Nc1ncnc2cccnc12` [Compound 60, (S)-4-((2-((5-fluoropyridin-3-yl)oxy)ethyl) (4-(5,6,7,8-tetrahydro-1,8-naphthyridin-2-yl)butyl)amino)-2-(pyrido[3,2-d]pyrimidin-4-ylamino) butanoic acid], the IC50 is below 50 nM.

`CO[C@H](C)CN(CCCCc1ccc2c(n1)NCCC2)CC[C@H](Nc1ccncn1)C(=O)O` [Compound 106, (S)-4-(((R)-2-methoxypropyl) (4-(5,6,7,8-tetrahydro-1,8-naphthyridin-2-yl)butyl)amino)-2-(pyrimidin-4-ylamino) butanoic acid]: the IC50 is below 50 nM.

Turning to `O=C(O)[C@H](CCN(CCCCc1ccc2c(n1)NCCC2)CC1CCO1)Nc1ncnc2ccccc12` (stereo partly drawn) [Compound 129, (2S)-4-((oxetan-2-ylmethyl) (4-(5,6,7,8-tetrahydro-1,8-naphthyridin-2-yl)butyl)amino)-2-(quinazolin-4-ylamino) butanoic acid], the IC50 is below 50 nM.

For the compound `O=C(O)[C@H](CCN(CCCCc1ccc2c(n1)NCCC2)CC(F)F)Nc1ncncc1-c1ccccc1` [Compound 119, (S)-4-((2,2-difluoroethyl) (4-(5,6,7,8-tetrahydro-1,8-naphthyridin-2-yl)butyl)amino)-2-((5-phenylpyrimidin-4-yl)amino) butanoic acid], the IC50 is above 1000 nM.

`O=C(O)[C@H](CCN(CCCCc1ccc2c(n1)NCCC2)CCOc1ccccc1)Nc1cc(-n2cccn2)ncn1` [Compound 91, (S)-2-((6-(1H-pyrazol-1-yl)pyrimidin-4-yl)amino)-4-((2-phenoxyethyl) (4-(5,6,7,8-tetrahydro-1,8-naphthyridin-2-yl)butyl)amino) butanoic acid]: the IC50 is below 50 nM.

With `Cc1nc(N[C@@H](CCN(CCCCc2ccc3c(n2)NCCC3)CCOc2cccnc2C)C(=O)O)c2ccc(F)cc2n1` [Compound 53, (S)-2-((7-fluoro-2-methylquinazolin-4-yl)amino)-4-((2-((2-methylpyridin-3-yl)oxy)ethyl) (4-(5,6,7,8-tetrahydro-1,8-naphthyridin-2-yl)butyl)amino) butanoic acid], the IC50 was below 50 nM.

Consider `O=C(O)[C@H](CCN(CCCCc1ccc2c(n1)NCCC2)CCOc1ccccn1)Nc1ncnc2c(Cl)cccc12` [Compound 48, (S)-2-((8-chloroquinazolin-4-yl)amino)-4-((2-(pyridin-2-yloxy)ethyl) (4-(5,6,7,8-tetrahydro-1,8-naphthyridin-2-yl)butyl)amino) butanoic acid], for which the IC50 is below 50 nM.

As for `O=C(O)[C@H](CCN(CCCCc1ccc2c(n1)NCCC2)CC(CO)CO)Nc1ncnc2ccccc12` [Compound 130, (S)-4-((3-hydroxy-2-(hydroxymethyl)propyl) (4-(5,6,7,8-tetrahydro-1,8-naphthyridin-2-yl)butyl)amino)-2-(quinazolin-4-ylamino) butanoic acid], the IC50 was below 50 nM.

As to `COCCN(CCCCc1ccc2c(n1)NCCC2)CC[C@H](Nc1cc(-n2cccn2)ncn1)C(=O)O` [Compound 44, (S)-2-((6-(1H-pyrazol-1-yl)pyrimidin-4-yl)amino)-4-((2-methoxyethyl) (4-(5,6,7,8-tetrahydro-1,8-naphthyridin-2-yl)butyl)amino) butanoic acid], the IC50 is below 50 nM.

For `COc1ccc2c(N[C@@H](CCN(CCCF)CCCCc3ccc4c(n3)NCCC4)C(=O)O)ncnc2c1` [Compound 41, (S)-4-((3-fluoropropyl) (4-(5,6,7,8-tetrahydro-1,8-naphthyridin-2-yl)butyl)amino)-2-((7-methoxyquinazolin-4-yl)amino) butanoic acid], the IC50 was below 50 nM.
